Paper PMC11338949, “E41K mutation activates Bruton’s tyrosine kinase by stabilizing an inositol hexakisphosphate-dependent invisible dimer” (The Journal of Biological Chemistry, 2024)

Biological target: T1, full-length BTK^E41K (Mus musculus, UniProt P35991, E41K)
T1 construct: The full-length BTK was cloned into the pET28-SUMO vector; His-SUMO (N, cleaved yes); made in house; host or cells: E. coli BL21-DE3, co-transformed with YopH and Trigger factor
Test: Autophosphorylation assay by immunoblot (Y551) of purified full-length BTK
Format: biochemical
Details: 2 μM BTK, 100 μM ligand, compared to unliganded state
Experimental: The activation of full-length BTK in response to the ligand was determined from the autophosphorylation Y551 or total phosphotyrosine level. Before each reaction, 2 μM BTK was incubated with 100 μM ligand for 10 min. The phosphorylation reaction was performed at 25 °C in a buffer containing 25 mM Tris-Cl (pH 7.5), 2 mM ATP, 10 mM MgCl2, and 1 mM Na3VO4. The reaction was quenched with SDS–PAGE loading buffer. The autophosphorylation levels of full-length BTK were detected by immunoblot ([22]). The amount of BTK loaded was determined using an anti-BTK antibody. Densitometric analysis of immunoblots was performed using Fiji software ([52]).

T1 sequence (P35991 whole entry E41K): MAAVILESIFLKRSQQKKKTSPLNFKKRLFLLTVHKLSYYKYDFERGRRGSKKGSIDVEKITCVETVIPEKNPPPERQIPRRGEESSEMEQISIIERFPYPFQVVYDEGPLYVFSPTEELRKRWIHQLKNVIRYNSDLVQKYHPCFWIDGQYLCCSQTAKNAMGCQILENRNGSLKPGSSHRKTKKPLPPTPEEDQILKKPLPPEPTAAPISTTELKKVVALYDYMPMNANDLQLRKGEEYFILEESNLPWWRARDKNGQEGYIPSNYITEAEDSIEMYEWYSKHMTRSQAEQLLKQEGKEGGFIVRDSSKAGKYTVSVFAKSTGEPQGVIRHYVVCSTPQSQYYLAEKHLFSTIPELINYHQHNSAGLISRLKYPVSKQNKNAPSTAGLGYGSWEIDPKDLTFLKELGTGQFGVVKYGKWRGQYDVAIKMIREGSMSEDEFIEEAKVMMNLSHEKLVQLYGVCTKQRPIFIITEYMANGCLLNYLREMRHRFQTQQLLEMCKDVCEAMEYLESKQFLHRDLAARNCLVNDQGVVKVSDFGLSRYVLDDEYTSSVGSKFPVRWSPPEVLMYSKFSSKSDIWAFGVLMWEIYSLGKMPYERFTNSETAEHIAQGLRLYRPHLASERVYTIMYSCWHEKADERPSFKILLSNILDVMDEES

SMILES	Y551 phosphorylation of BTK^E41K
O=P(O)(O)O[C@@H]1[C@H](O)[C@H](O)[C@@H](OP(=O)(O)O)[C@H](OP(=O)(O)O)[C@H]1O [IP3]	does not induce
O=P(O)(O)OC1C(OP(=O)(O)O)C(OP(=O)(O)O)C(OP(=O)(O)O)C(OP(=O)(O)O)C1OP(=O)(O)O (centres unmarked) [IP6, inositol hexakisphosphate]	significantly increases
